Series [1] deals with MC38ova tumor-bearing mice. Nature of the series: Peripheral effects in MC38ova tumor-bearing mice: anti-mIL18BP vs engineered mIL-18. The series is classed as in vivo. The note with it: single dose, varying concentrations of IL-15. As for the experimental part:
Nine days pre-inoculum, vials of MC38ova^dim cells were thawed into RPMI media containing 10% FBS, 1% Glutamax, 1% Sodium pyruvate, 1% HEPES, 1% NEAA, 0.01% 2-mercaptoethanol, 1% Penicillin-Streptomycin. Following centrifugation at 300×g for 8 min, cell pellet was resuspended, counted and seeded in a T175 flask. On days −7, −5 and −2, the cells were detached and re-seeded at 6-8*10^6 cells/T175 flask. On the day of inoculum, the cells were detached, centrifuged at 300×g for 10 min, filtered through […] cell strainer and resuspended in RPMI.
Experiments were performed in C57Bl/6 (female, 6-8 wk, Envigo). Mice were anesthetized with 10% Ketamine and 10% Xylazine mixture injected intraperitoneal. Next, mice were inoculated with MC38ova cells (1.2×10^6) subcutaneously to the right flank in 50 μl/mice.
At tumor volume of −120 mm^3 (day 9), mice were randomly assigned into treatment groups. Mice were treated with Synagis mouse IgG1, k isotype control 15 mg/kg (IP), anti-mIL18 bp 837 mIgG1 15 mg/kg (IP), PBS (SC), or engineered IL-18 (SC) 0.32 mg/kg. Treatments were injected twice a week for a total of 6 treatments. […] Mice were weighed every week. Mice were bled before the 4th treatment, 4 hours after the 4th treatment, and 24 hours after the 4th treatment. Serum was analyzed for presence of IFNg, TNFα, MCP1, IL6 by Cytometric Bead Array (CBA) Mouse Inflammation Kit (BD Cat. No. 552364). […]

The subject of series [2] is tumor infiltrating lymphocytes (TILs) co-cultured with MEL624 cells. Nature of the series: rhIL-18 titration in TIL:MEL624 co-culture. The series is classed as cell-based, human. The note with it: 24 hr. The procedure:
Human MEL624 cells were thawed and grown in DMEM with 10% FBS, 1% Glutamax, 1% Penicillin-Streptomycin Solution and 1% HEPES buffer. The cells were then seeded at 75 k cells/well in a 96 well plate in the assay medium (IMDM with 10% human serum, 1% Glutamax, 1% MEM eagle, 1% Sodium Pyruvate and 1% Penicillin-Streptomycin Solution) and incubated 1 hour in 37° C., 5% CO2 incubator before co-culture with human tumor infiltrating lymphocytes that were previously expanded using known melanoma antigens (TILs). Human TILs were thawed in full TIL media and 75 k cells/well were co-cultured with the MEL624 cells to create an effector: target ratio of 1:1. The co-cultured cells were then treated with rhIL-18 (1.23-300 ng/ml). Cells and all added solutions were prepared in full assay medium to a final volume of 200 μl/well. Plates were incubated for 24 hours in 37° C., 5% CO2 incubator, after which the supernatant was collected for cytokine secretion evaluation. All tests were done in triplicates.

A value given as a limit tells only on which side of the number the result lay.

Consider “IL-15: recombinant IL15 given to mice as comparator cytokine [reference compound]”, for which the “Spleens of mice treated with IL-15 vs controls” value in series [1] is “larger than controls”. Consider “rhIL-18: recombinant human IL-18 (R&D systems)”, for which, in series [2], the “Concentration at saturation of IFNγ secretion” value was ~100 ng/mL and the “Concentration that activates TILs (IFNγ secretion)” value is > 1 ng/mL.
